Like-named read-outs stand apart in the source and are kept apart here.
Assays:
[1] = pig
Source text: Further, the rate of permeation may be determined using the Attenuated Total Reflection Fourier Transform Infrared Spectroscopy (ATR-FTIR), and multivariate modeling. […] The flux results may be obtained based on comprehensive in vitro permeation studies by using the pig abdominal skin samples, that may be normalized to reflect the equivalence of 0.10 cm skin thickness.
A proprietary chemometric modeling method may be used to perform quantitative analysis based on spectral data. In addition, the method may be used to determine the concentration of the active ingredient dissolved in the EthoGel formulation.
The skin permeation study may be conducted using a Bruker ATR-FTIR instrument (Model Alpha; Bruker Optics Ltd., MA, USA) equipped with a 2×2 mm diamond spectral window. Pig abdominal skin samples may be obtained from a local meat supplier. The skin samples may be treated by removing the fat and connecting tissues from the dermis side, followed by cutting them into 2×2 cm-size pieces and keeping them at freezing temperature for later use. Further, skin thickness may be measured before the experiment by allowing the skin sample to warm to room temperature and by using a Material Thickness Meter (Model No. PCE-CT 26; PCE Americas Inc, Jupiter, Fla., USA).
In a typical experiment, the skin sample may be put on the spectral window of the spectrometer with the dermis side facing the window. Further, about 1 g of the EthoGel formulation may be applied on the stratum corneum side of the skin sample, which may be covered by an applicator with an area of 3.5 cm^2 to minimize the loss of permeation enhancers (i.e., ethanol) through evaporation from the formulation. IR spectra may be taken at 15-60 min intervals and the experiment may be continued for up to 72 hours when needed. Further, the spectra may be used for calculating w/w % of the active ingredient (ibuprofen or diclofenac), ethanol, and glycerin on the dermis side of the skin. Chemometric modeling may be conducted using the software Unscrambler (CAMO Software AS, Oslo, Norway). The diffusion coefficients of the active ingredient, ethanol, and glycerin can be calculated using the following equation:
where D is the diffusion coefficient (cm2/H), L is the lag time (hour) and h is the skin thickness (cm).
The flux J (μg/cm2/H) is calculated using the following equation:
where D is the diffusion coefficient, C is the concentration (μg/mL) of the active ingredient dissolved in the EthoGel formulation and h is the thickness of the skin.

[2] = current marketed TD patch products; per 24 hours; cited from earlier work

| SMILES | flux achieved by EGATDDS [1] | flux ([1]; 1 w/w %) [μg/cm2/H] | amount of drug delivered in 24 hours [2] [mg] | flux ([1]; 4 w/w %) [μg/cm2/H] |
| --- | --- | --- | --- | --- |
| O=C(O)Cc1ccccc1Nc1c(Cl)cccc1Cl [diclofenac, Diclofenac] | 5-324 μg/cm2/H | 54 |  |  |
| CCCN(CCc1cccs1)[C@H]1CCc2c(O)cccc2C1 [ritigotine] |  |  | 1 |  |
| CCN(C)C(=O)Oc1cccc([C@H](C)N(C)C)c1 [rivastigmine] |  |  | 4.5 |  |
| CC(C)Cc1ccc(C(C)C(=O)O)cc1 (stereo not drawn) [ibuprofen, Ibuprofen] | 25-1337 μg/cm2/H |  |  | 283 |
